Assay results published in patent publication US20160302455A1, “Methods Of Producing An Antimicrobial Solution And Methods For Reducing Bacteria On Produce And/Or Minimizing Enzymatic Browning Of Produce” (priority 2015, published 2016).
Like-named read-outs stand apart in the source and are kept apart here. Ends that are not written are not given here.

Key:
[1] = tested on: Aerobic, mesophilic bacteria; assay type: cell-based
L. monocytogenes [2] = assay type: cell-based, Listeria monocytogenes
Salmonella spp. [3] = assay type: cell-based
E. coli O157:H7 [4] = assay type: cell-based, Escherichia coli O157:H7
L. monocytogenes [5] = assay type: cell-based, Listeria monocytogenes; remark: listed apart in the source
E. coli O157:H7 [6] = assay type: cell-based, Escherichia coli O157:H7; remark: listed apart in the source
Salmonella spp. [7] = assay type: cell-based; remark: listed apart in the source
[8] = tested on: Aerobic mesophilic bacteria
[9] = tested on: Aerobic mesophilic bacteria; remark: listed apart in the source

Sodium Lactate [Sodium Lactate (2%)]
Log reduction of aerobes on cantaloupe rind surface [1]: (1.1) log | Log reduction of L. monocytogenes on cantaloupe rind surface (L. monocytogenes [2]): (2.8) log | Log reduction of Salmonella spp on cantaloupe rind surface (Salmonella spp. [3]): (1.5) log | Log reduction of E. coli O157:H7 on cantaloupe rind surface (E. coli O157:H7 [4]): (1.4) log

nisin (ITSISLCTPGCKTGALMGCNMKTATCHCSIHVSK; not fully specified (some residues, bridges); cysteine pairing not given here; UniProt P13068 24-57, looked up) [Nisin (30 mg; (~10 μg/ml)]
Log reduction of aerobes on cantaloupe rind surface [1]: (1.2) log | Log reduction of L. monocytogenes on cantaloupe rind surface (L. monocytogenes [2]): (3.6) log

OO [hydrogen peroxide]
Average population of L. monocytogenes inactivated (L. monocytogenes [5]): 5.0 log | Average population of E. coli O157:H7 inactivated (E. coli O157:H7 [6]): 5.5 log | Average population of Salmonella inactivated (Salmonella spp. [7]): 5.1 log | Log reduction of aerobes on cantaloupe rind surface [1]: (2.0) log | Population of aerobic mesophilic bacteria, fresh-cut [1]: 1.9 ± 0.10C Log10 CFU/g | Log reduction of L. monocytogenes on cantaloupe rind surface (L. monocytogenes [2]): (3.4) log | Log reduction of Salmonella spp on cantaloupe rind surface (Salmonella spp. [3]): (3.0) log | Log reduction of E. coli O157:H7 on cantaloupe rind surface (E. coli O157:H7 [4]): (2.9) log | Population of aerobic mesophilic bacteria, fresh-cut [8]: 0.5 ± 0.10D Log10 CFU/g | Population of aerobic mesophilic bacteria, fresh-cut [9]: 0.3 ± 0.02D Log10 CFU/g

C/C=C/C=C/C(=O)O [Sorbic acid (0.03%), Sorbic acid]
Log reduction of aerobes on cantaloupe rind surface [1]: (1.1) log | Log reduction of L. monocytogenes on cantaloupe rind surface (L. monocytogenes [2]): (2.2) log | Log reduction of Salmonella spp on cantaloupe rind surface (Salmonella spp. [3]): (2.0) log | Log reduction of E. coli O157:H7 on cantaloupe rind surface (E. coli O157:H7 [4]): (1.8) log

O=C(O)CN(CCN(CC(=O)O)CC(=O)O)CC(=O)O [EDTA (0.02 M), ethylenediaminetetraacetic acid]
Log reduction of aerobes on cantaloupe rind surface [1]: (0.4) log | Log reduction of L. monocytogenes on cantaloupe rind surface (L. monocytogenes [2]): (0.2) log | Log reduction of Salmonella spp on cantaloupe rind surface (Salmonella spp. [3]): (0.4) log | Log reduction of E. coli O157:H7 on cantaloupe rind surface (E. coli O157:H7 [4]): (0.3) log

O=C(O)CC(O)(CC(=O)O)C(=O)O [Citric Acid (10 mM), Citric acid]
Log reduction of aerobes on cantaloupe rind surface [1]: (1.2) log | Log reduction of L. monocytogenes on cantaloupe rind surface (L. monocytogenes [2]): (2.0) log | Log reduction of Salmonella spp on cantaloupe rind surface (Salmonella spp. [3]): (1.8) log | Log reduction of E. coli O157:H7 on cantaloupe rind surface (E. coli O157:H7 [4]): (1.5) log
